According to PubChem BioAssay (NCI):
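Compound exposure: 48 hours, 5 concentrations, 96-well plates. The concentration for 50% growth inhibition is given as GI50. TGI marks complete inhibition of growth.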

Columns and labels:
Assay in all cases: inhibition of tumour cell growth, NCI panel, 48 h
SK-MEL-5 melanoma = test system: SK-MEL-5 melanoma
BT-549 breast = test system: BT-549 breast
A498 renal = test system: A498 renal
MDA-MB-231 breast = test system: MDA-MB-231 breast
UO-31 renal = test system: UO-31 renal
OVCAR-5 ovarian = test system: OVCAR-5 ovarian
OVCAR-4 ovarian = test system: OVCAR-4 ovarian
U251 CNS = test system: U251 CNS

Row | Structure (SMILES) | GI50 (SK-MEL-5 melanoma) [µM] | TGI (SK-MEL-5 melanoma) [µM] | GI50 (BT-549 breast) [µM] | TGI (BT-549 breast) [µM] | GI50 (A498 renal) [µM] | TGI (A498 renal) [µM] | GI50 (MDA-MB-231 breast) [µM] | TGI (MDA-MB-231 breast) [µM] | GI50 (UO-31 renal) [µM] | TGI (UO-31 renal) [µM] | GI50 (OVCAR-5 ovarian) [µM] | TGI (OVCAR-5 ovarian) [µM] | GI50 (OVCAR-4 ovarian) [µM] | TGI (OVCAR-4 ovarian) [µM] | GI50 (U251 CNS) [µM] | TGI (U251 CNS) [µM]
1 | Cc1ccsc1C(NC(=O)c1ccccc1)c1cc(Cl)c2cccnc2c1O (stereo unspecified) | 0.583 | 5.14 | 2.04 | 21.3 | 0.936 | 7.29 | 0.675 | 18.7 | 0.334 | 2.51 | 2.67 | 42 | 0.479 | 12.8 | 0.318 | 10.4
2 | NC1CC(=O)c2c(-c3cccs3)sc(-c3cccs3)c21 (stereo unspecified) | 28 | > 100 | 19.5 | 63.8 | 77.8 | > 100 | 27.9 | > 100 | 24.7 | > 100 |  |  | 43 | > 100 | 16.7 | 34
3 | COc1cc2ncnc(Oc3ccc(NC(=O)Nc4ccc(CN5CCOCC5)c(C(F)(F)F)c4)c4ccccc34)c2cc1OC | 0.499 | 2.34 | 1.11 | 5.28 | 0.0424 | 0.584 | 1.2 | 6.32 | 0.189 | 2.98 | 1.15 | 6.95 | 0.124 | 8.69 | 1.05 | 4.01
4 | COc1cc(OC)c(/C=C/C(=O)c2c(OC)cc(OC)cc2OC)c(OC)c1 | 0.818 | 11.2 | 0.931 | > 24.5 | 0.27 | 4.85 | 1.51 | 31.1 | 2.23 | > 100 | 2.8 | 53 | 5.94 | > 100 | 1.11 | 9.43
5 | CCN1CCN(C(=O)[C@]23CC[C@@H](C)[C@H](C)[C@@H]2C2=CC[C@@H]4[C@@]5(C)CCC(=O)C(C)(C)[C@@H]5CC[C@@]4(C)[C@]2(C)CC3)CC1 | 0.888 | 1.6 | 0.833 | 1.58 | 0.927 | 2.42 | 0.779 | 1.5 | 0.726 | 1.42 | 0.907 | 1.87 | 1.26 | 4.74 | 0.854 | 1.85
6 | Cc1nnc(N/N=C/c2ccc([N+](=O)[O-])o2)[nH]c1=O | 0.84 | 3.3 | 0.566 | > 21.5 | 0.756 | 14.3 | 1.26 | > 24.5 | 0.931 | 10.8 | 2.98 | > 100 | 3.36 | > 100 | 0.289 | > 100
7 | CC1=CC(C)=N/C(=N/S(=O)(=O)c2cc(C)c(Cl)cc2SCc2ccccc2)NN1 | > 100 | > 100 | > 100 | > 100 | > 100 | > 100 | > 100 | > 100 | > 100 | > 100 | > 100 | > 100 | 79.1 | > 100 | 82.3 | > 100
8 | CN1C(=O)N(C)C2C1NC(=S)N2/N=C/C=C/c1ccccc1[N+](=O)[O-] (stereo unspecified) | 0.753 | > 100 | 3.34 | > 100 | 0.513 | 7.26 | 5.02 | > 100 | 3.86 | > 100 | 3.88 | > 100 | > 100 | > 100 |  | 
9 | Cc1cc(OCc2ccc(C(F)(F)F)cc2)c2c(c1)C(=O)C=C(NCCN1CCCC1)C2=O | 1.53 | 2.88 | 2.05 | 5.36 | 2.69 | 12.8 |  |  | 2.19 | 4.93 | 3.39 | 12.3 | 4.01 | 15.5 | 1.72 | 3.45
10 | NS(=O)(=O)c1ccc(-n2nc3c(c2-c2cccs2)Cc2ccccc2-3)cc1 | 10.5 | 22.5 | 12.4 | 26.3 |  |  | 17.3 | 36.2 | 12.2 | 24.6 | 18.5 | 48 | 29.9 | > 100 | 12.3 | 25.8
11 | CC(=O)C1=C(C)N(Cc2ccccc2)C2(O)C=CC(=O)C3=C(O)c4ccccc4C(=O)C312 (stereo unspecified) | 3.63 | 12.5 | 5.88 | 19.6 | 22.7 | 38.1 | 2.1 | 5.97 |  |  | 6.28 | 25 | 4.84 | 44.3 | 3.38 | 10.2
